Here are results for 7 compounds from patent US8722629B2, “Auristatin derivatives and use thereof” (Seattle Genetics, Inc., priority 2010, dated 2014).

Structures can show the parent of a compound that is named as a salt. Starred links: 1 amine or outer side, 2 acyl side, 3 side chain; linkers in the order of their positions; H or OH if unused. Non-standard residues stand in square brackets, D forms with d. Residues, ends and D or L forms follow the SMILES beside them. *: point of attachment. Dolaproine = CO[C@@H]([C@@H]1CCCN1)[C@@H](C)C(=O)O; X2 = C[C@@H](c1ccccc1)[C@H](N[*:1])C(=O)[*:2]; X1 = O=C([C@]1(N[*:1])C[C@@H]1c1ccccc1)[*:2]; Dil = CC[C@H](C)[C@H](NC)[C@@H](CC(=O)O)OC; Oxazinan2yl(1,2) = C1CCN(*)OC1; NMeV = CN[C@H](C(=O)O)C(C)C; X3 = c1ccc2c(c1)CON(*)C2

The test system of data set [1] is human renal cancer cell line 786-0. Description: Antiproliferative effect on the 786-0 RCC cell line (MTT assay). It is filed as cell-based. The conditions noted are these: Homo sapiens, 786-0, 786-0 cells, incubation 48 h to 96 h. The method, then: B-1. Determination of the Antiproliferative Effect on the 786-0 RCC Cell Line:
A defined cell number of the human renal cancer cell line 786-0 was sown in a 96-well microtiter plate in complete medium (2500 or 7000 cells/well) and incubated at 37° C./5% CO2 overnight. After 18 h, the sowing medium was replaced by serum-free medium or medium with 2% FCS. Treatment was initiated by addition of the respective test substance in varying concentration (10^−5 M to […]). The chosen incubation times were from 48 h to 96 h. Proliferation was determined with the aid of the MTT assays (ATCC, Manassas, Va., USA, catalogue No. 30-1010K). After the incubation time, the MTT reagent was incubated with the cells for 4 h, and the cells were subsequently lysed by adding the detergent overnight. The dye formed was detected at 570 nm. […] The data obtained from this test are triple determinations, and at least two independent experiments were carried out.

Data set [2] is described as follows: Plasma stability in vitro, rat plasma. It is filed as in vitro ADME. The conditions noted are these: 37° C.; for half-life at 39.2 µg/ml: male, Wistar, rat plasma (Li heparin), Method A (HPLC). How it is done: (§1) B-4. Determination of the Plasma Stability in vitro:
(§2) 1 mg of the test substance in question was dissolved in 0.5 ml of acetonitrile/DMSO (9:1). From this solution, 20 μl were removed and added to 1 ml of rat or human plasma at 37° C. (plasma of male Wistar rats with Li heparin from Harlan & Winkelmann or fresh human leukocyte-depleted plasma originating from a whole blood sample). From this plasma solution, which was shaken vigorously, 100 μl aliquots were removed immediately after addition of the sample (initial value as reference) and then after 5, 10, 30, 60, 120, 180 and 240 minutes and optionally after 24 hours and added to 300 μl of acetonitrile. The precipitated plasma proteins were removed by centrifugation at 5000 rpm for 10 minutes, and 30 μl of the supernatant were analysed by HPLC for its content of unmodified test substance. Quantification was via the area percentages of the corresponding peaks.
HPLC Method for Rat Plasma:
Instrument: Agilent 1200 with DAD, binary pump, autosampler, column oven and thermostat; column: Kromasil 100 C18, 250 mm×4 mm, […]; column temperature: 45° C.; mobile phase A: 5 ml of perchloric acid/1 of water, mobile phase B: acetonitrile; gradient: 0-8 min 98% A, 2% B; 8-15 min 56% A, 44% B; […] 10% A, 90% B; 20-21 min 10% A, 90% B; […] 98% A, 2% B; […] 98% A, 2% B; flow rate: 2 ml/min; UV detection: 220 nm.
(§3) The test substance was incubated in rat or human plasma at 37° C. over a period of 5 h with gentle stirring. At different points in time (0, 2, 5, 10, 20, 30, 60, 120, 180 and 300 minutes), a 100 μl aliquot was removed. Following addition of internal standard (10 μl), the proteins were precipitated by addition of 200 μl of acetonitrile and the mixture was centrifuged in an Eppendorf centrifuge for 5 minutes. After addition of 150 μl of ammonium acetate buffer pH 3 to 150 μl of the supernatant, the content of unmodified test substance was analysed by LC/MSMS.

Data set [3] deals with human colon carcinoma cell line HT29 wt (wild type). Briefly: Antiproliferative effect on the HT29 wt cell line (MTT assay). The data set is classed as cell-based. To be noted: Homo sapiens, HT-29, HT29 wt cells, 10% FCS, incubation 48 h to 96 h. The method, then: B-2. Determination of the Antiproliferative Effect on the HT29 Wt Cell Line:
A defined cell number of the human colon carcinoma cell line HT29 wt (wild type) was sown in a 96-well microtiter plate in complete medium (10% FCS-RPMI) (2500 cells/well) and incubated at 37° C./5% CO2 overnight. After 18 h, the sowing medium was replaced by fresh medium with 10% FCS. Treatment was initiated by addition of the respective test substance. From the substances to be investigated, dose/activity curves in a concentration range of from 10^−5 M to 10^−14 M (1:10-dilution series) were determined. The chosen incubation times were from 48 h to 96 h. Pro-liferation was determined with the aid of the MTT assays (ATCC, Manassas, Va., USA, catalogue No. 30-1010K). After the incubation time, the MTT reagent was incubated with the cells for 4 h, and the cells were subsequently lysed by adding the detergent overnight. The dye formed was detected at 570 nm. Proliferation of cells which had not been treated with test substance, but had otherwise been treated identically, was defined as 100%. The data obtained from this test are triple determinations, and at least two independent experiments were carried out.

Data set [4] can be described thus: Plasma stability in vitro, human plasma. It is filed as in vitro ADME. How it is done:
as §1, §2
HPLC Method for Human Plasma:
Instrument: Agilent 1100 with DAD, binary pump, autosampler, column oven and thermostat;
column: Kromasil 100 C18, 250 mm×4 mm, 5 μm; column temperature: 45° C.; mobile phase A: 5 ml of perchloric acid/1 of water, mobile phase B: acetonitrile; gradient: 0-3 min 98% A, 2% B; 3-10 min 65% A, 35% B; 10-15 min 40% A, 60% B; 15-21 min 10% A, 90% B; 21-22 min 10% A, 90% B; 22-24 min 98% A, 2% B; 24-26 min 98% A, 2% B; flow rate: 2 ml/min; UV detection: 220 nm.
as §3

As a reminder, the IC50 is the concentration at which inhibition is half-maximal. Read a low IC50 as inhibition by little substance. As usually defined, the half-life is the time needed for the level to fall by half in the phase considered. Higher therefore signals slow loss. For the compound `CC[C@H](C)[C@@H]([C@@H](CC(=O)N1CCC[C@H]1[C@H](OC)[C@@H](C)C(=O)N[C@@]1(C(=O)N2CCCCO2)C[C@@H]1c1ccccc1)OC)N(C)C(=O)[C@@H](NC(=O)[C@@H](NC)C(C)C)C(C)C` [Example 17, N-Methyl-L-valyl-N-[(3R,4S,5S)-3-methoxy-1-{(2S)-2-[(1R,2R)-1-methoxy-2-methyl-3-{[(1S,2R)-1-(1,2-oxazinan-2-ylcarbonyl)-2-phenylcyclopropyl]amino}-3-oxopropyl]pyrrolidin-1-yl}-5-methyl-1-oxoheptan-4-yl]-N-methyl-L-valinamide, trifluoroacetic acid salt] (H-[NMeV]V[Dil][Dolaproine][X1]-{Oxazinan2yl(1,2)}), the IC50 amounted to 4 nM in data set [1] and 0.5 nM in data set [3]. Moreover, the half-life at 39.2 µg/ml in data set [2] was over 24 h. The “degradation in human plasma after 24 h” value in data set [4] is “no degradation was observed”.

`CC[C@H](C)[C@@H]([C@@H](CC(=O)N1CCC[C@H]1[C@H](OC)[C@@H](C)C(=O)N[C@@]1(C(=O)N2Cc3ccccc3CO2)C[C@@H]1c1ccccc1)OC)N(C)C(=O)[C@@H](NC(=O)[C@@H](NC)C(C)C)C(C)C` [Example 18, N-Methyl-L-valyl-N-[(3R,4S,5S)-1-{(2S)-2-[(1R,2R)-3-{[(1S,2R)-1-(1,4-dihydro-3H-2,3-benzoxazin-3-ylcarbonyl)-2-phenylcyclopropyl]amino}-1-methoxy-2-methyl-3-oxopropyl]pyrrolidin-1-yl}-3-methoxy-5-methyl-1-oxoheptan-4-yl]-N-methyl-L-valinamide, trifluoroacetic acid salt] (H-[NMeV]V[Dil][Dolaproine][X1]-X3) had a half-life at 39.2 µg/ml in data set [2] of over 24 h. This compound returned a half-maximal inhibitory concentration (IC50) in data set [3] of 1.2 nM.

As for `CC[C@H](C)[C@@H]([C@@H](CC(=O)N1CCC[C@H]1[C@H](OC)[C@@H](C)C(=O)N[C@H](Cc1ccccc1)C(=O)N1CCCCO1)OC)N(C)C(=O)[C@@H](NC(=O)[C@@H](NC)C(C)C)C(C)C` [Example 21, N-Methyl-L-valyl-N-[(3R,4S,5S)-3-methoxy-1-{(2S)-2-[(1R,2R)-1-methoxy-2-methyl-3-{[(2R)-1-(1,2-oxazinan-2-yl)-1-oxo-3-phenylpropan-2-yl]amino}-3-oxopropyl]pyrrolidin-1-yl}-5-methyl-1-oxoheptan-4-yl]-N-methyl-L-valinamide, trifluoroacetic acid salt] (H-[NMeV]V[Dil][Dolaproine][dF]-{Oxazinan2yl(1,2)}), in data set [4], the “degradation in human plasma after 24 h” value is given as “no degradation was observed”.

As to `CC[C@H](C)[C@@H]([C@@H](CC(=O)N1CCC[C@H]1[C@H](OC)[C@@H](C)C(=O)N[C@H](C(=O)N1CCCCO1)[C@@H](C)c1ccccc1)OC)N(C)C(=O)[C@@H](NC(=O)[C@@H](NC)C(C)C)C(C)C` [Example 4, N-Methyl-L-valyl-N-[(3R,4S,5S)-3-methoxy-1-{(2S)-2-[(1R,2R)-1-methoxy-2-methyl-3-{[(2S,3S)-1-(1,2-oxazinan-2-yl)-1-oxo-3-phenylbutan-2-yl]amino}-3-oxopropyl]pyrrolidin-1-yl}-5-methyl-1-oxoheptan-4-yl]-N-methyl-L-valinamide, trifluoroacetic acid salt] (H-[NMeV]V[Dil][Dolaproine][X2]-{Oxazinan2yl(1,2)}), the values for the IC50 in data set [1] and in data set [3] were 14 nM and 0.2 nM, respectively. The compound further showed a half-life in data set [2] (Method B (LC/MSMS)) of 3 h.

On to `CC[C@H](C)[C@@H]([C@@H](CC(=O)N1CCC[C@H]1[C@H](OC)[C@@H](C)C(=O)N[C@@]1(C(=O)N2CCCCO2)C[C@@H]1c1ccccc1)OC)N(C)C(=O)[C@@H](NC(=O)[C@H](C(C)C)N(C)CCCC(=O)O)C(C)C` [Example 23, N-(3-Carboxypropyl)-N-methyl-L-valyl-N-[(3R,4S,5S)-3-methoxy-1-{(2S)-2-[(1R,2R)-1-methoxy-2-methyl-3-{[(1S,2R)-1-(1,2-oxazinan-2-ylcarbonyl)-2-phenylcyclopropyl]amino}-3-oxopropyl]-pyrrolidin-1-yl}-5-methyl-1-oxoheptan-4-yl]-N-methyl-L-valinamide], for which the concentration for half-maximal inhibition (IC50) in data set [1] came out at 11 nM; in data set [3] it was 0.7 nM. This compound came in with a half-life at 39.2 µg/ml in data set [2] of over 24 h.

In the case of `CC[C@H](C)[C@@H]([C@@H](CC(=O)N1CCC[C@H]1[C@H](OC)[C@@H](C)C(=O)N[C@@H](Cc1ccccc1)C(=O)OC)OC)N(C)C(=O)[C@@H](NC(=O)[C@@H](NC)C(C)C)C(C)C` [MMAF-OMe, Monomethylauristatin F methyl ester, reference compound] (H-[NMeV]V[Dil][Dolaproine]F-OMe), the t1/2 in data set [2] (Method A) is on record as under 1 min. For the same compound, the “degraded in human plasma during 24 h” value in data set [4] is “about 20%”.

In the case of `CC[C@H](C)[C@@H]([C@@H](CC(=O)N1CCC[C@H]1[C@H](OC)[C@@H](C)C(=O)N[C@@H](Cc1ccccc1)C(=O)N1CCCCO1)OC)N(C)C(=O)[C@@H](NC(=O)[C@@H](NC)C(C)C)C(C)C` [Example 1, N-Methyl-L-valyl-N-[(3R,4S,5S)-3-methoxy-1-{(2S)-2-[(1R,2R)-1-methoxy-2-methyl-3-{[(2S)-1-(1,2-oxazinan-2-yl)-1-oxo-3-phenylpropan-2-yl]amino}-3-oxopropyl]pyrrolidin-1-yl}-5-methyl-1-oxoheptan-4-yl]-N-methyl-L-valinamide, trifluoroacetic acid salt] (H-[NMeV]V[Dil][Dolaproine]F-{Oxazinan2yl(1,2)}), the IC50 in data set [1] is 4 nM; in data set [3], 0.1 nM. In data set [4], the “degradation in human plasma after 24 h” value was “no degradation was observed”.
